Data as given in ChEMBL document CHEMBL1134145, “Carbohydrate recognition of gramicidin S analogues in aqueous medium” (Bioorg Med Chem Lett, 2001).

Columns and labels:
[1] = Dissociation constant of compound with Lactulose was determined; type: physicochemical
[2] = Dissociation constant of compound with Fructose was determined; type: physicochemical

Kd [1] [µM] | Kd [2] [µM] | SMILES
30 |  | NCCC[C@@H]1NC(=O)[C@H](CCC(N)=O)NC(=O)[C@@H]2CCCN2C(=O)[C@@H](Cc2ccccc2)NC(=O)[C@H](Cc2c[nH]c3ccccc23)NC(=O)[C@H](CCCN)NC(=O)[C@H](CCC(N)=O)NC(=O)[C@@H]2CCCN2C(=O)[C@@H](Cc2ccccc2)NC(=O)[C@H](Cc2c[nH]c3ccccc23)NC1=O
200 | 1500 | NCCC[C@@H]1NC(=O)[C@H](CC(N)=O)NC(=O)[C@@H]2CCCN2C(=O)[C@@H](Cc2ccccc2)NC(=O)[C@H](Cc2c[nH]c3ccccc23)NC(=O)[C@H](CCCN)NC(=O)[C@H](CC(N)=O)NC(=O)[C@@H]2CCCN2C(=O)[C@@H](Cc2ccccc2)NC(=O)[C@H](Cc2c[nH]c3ccccc23)NC1=O
 | 1500 | NCCC[C@@H]1NC(=O)[C@H](CC(=O)O)NC(=O)[C@@H]2CCCN2C(=O)[C@@H](Cc2ccccc2)NC(=O)[C@H](Cc2c[nH]c3ccccc23)NC(=O)[C@H](CCCN)NC(=O)[C@H](CC(=O)O)NC(=O)[C@@H]2CCCN2C(=O)[C@@H](Cc2ccccc2)NC(=O)[C@H](Cc2c[nH]c3ccccc23)NC1=O
180 | 4700 | NCCC[C@@H]1NC(=O)[C@H](CC(=O)O)NC(=O)[C@@H]2CCCN2C(=O)[C@@H](Cc2ccccc2)NC(=O)[C@H](Cc2c[nH]c3ccccc23)NC(=O)[C@H](CCCN)NC(=O)[C@H](CC(N)=O)NC(=O)[C@@H]2CCCN2C(=O)[C@@H](Cc2ccccc2)NC(=O)[C@H](Cc2c[nH]c3ccccc23)NC1=O
